Assay: Inhibition of FTase

Q: Which IC50 does the source give for Cn1cncc1C(OCc1ccc(C#N)cc1NS(=O)(=O)c1cccs1)c1ccc(C#N)cc1 (configuration not stated) here?
A: 0.88 nM

Q: Which IC50 does the source give for Cn1cncc1C(OCc1ccc(C#N)cc1-c1ccc2c(c1)OC(F)(F)O2)c1ccc(C#N)cc1 (configuration not stated) here?
A: 1.1 nM

Q: For COCc1cccc(-c2cc(C#N)ccc2COC(c2ccc(C#N)cc2)c2cncn2C)c1 (configuration not stated), which IC50 is on record?
A: 0.19 nM

Q: Which IC50 does the source give for N#Cc1ccc(COCc2cncn2Cc2ccc(C#N)cc2-c2cccc3ccccc23)cc1 here?
A: 0.96 nM

Q: With N#Cc1ccc(Cn2cncc2COCc2ccc(C#N)cc2-c2cccc(OC(F)(F)F)c2)cc1 as the compound, how does the IC50 read?
A: 0.49 nM

Q: Which IC50 does the source give for Cc1ccccc1-c1cc(C(OCc2cccc(C(F)(F)F)c2)c2cncn2C)ccc1C#N (configuration not stated) here?
A: 29 nM

Q: For CCOc1cccc(-c2cc(C#N)ccc2COCc2cncn2Cc2ccc(C#N)cc2)c1, which IC50 is on record?
A: 0.27 nM

Q: Which IC50 does the source give for Cn1c(=O)cc(-c2cccc(Cl)c2)c2cc(Cn3cncc3Cn3ccc(C(=O)N4CCOCC4)c3)ccc21 here?
A: 1000 nM

Q: With CCOc1cccc(-c2cc(C#N)ccc2C#CC(O)(c2ccc(C#N)cc2)c2cncn2C)c1 (configuration not stated) as the compound, how does the IC50 read?
A: 0.73 nM

Q: With N#Cc1ccc(OCc2cn(Cc3ccc(C#N)c(-c4ccc5ccccc5c4)c3)cn2)cc1 as the compound, how does the IC50 read?
A: 0.32 nM

Q: With C[n+]1cccc(NC(=O)C2CN(C3c4ccc(Cl)cc4CCc4cc(Br)cnc43)CCN2C(=O)NC2CC2)c1 (configuration not stated) as the compound, how does the IC50 read?
A: 51 nM

Q: With Cc1ccc(CNC(=O)C2CN(C3c4ccc(Cl)cc4CCc4cc(Br)cnc43)CCN2C(=O)NC2CCCCC2)cn1 (configuration not stated) as the compound, how does the IC50 read?
A: 61 nM

Q: With COc1cccc(-c2cc(N)ccc2COC(c2ccc(C#N)cc2)c2cncn2C)c1 (configuration not stated) as the compound, how does the IC50 read?
A: 40 nM

Q: With CCOc1cccc(-c2cc(C#N)ccc2CNCc2cncn2Cc2ccc(C#N)cc2)c1 as the compound, how does the IC50 read?
A: 0.014 nM

Q: Which IC50 does the source give for Cn1cncc1C(OCc1ccc(C#N)cc1)c1ccc(C#N)c(-c2cc3ccccc3s2)c1 (configuration not stated) here?
A: 160 nM

Q: For O=C(Nc1nncs1)C1CN(C2c3ccc(Cl)cc3CCc3cc(Br)cnc32)CCN1C(=O)NC1CCCCC1 (configuration not stated), which IC50 is on record?
A: 490 nM

Q: For Cn1cncc1C(O)(c1ccc(Cl)cc1)c1ccc2c(c1)n(Cc1cccc(Cl)c1)c(=O)n2C (configuration not stated), which IC50 is on record?
A: 150 nM

Q: With CCOc1cccc(-n2c(=O)n(C)c3ccc(C(O)(c4ccc(C#N)cc4)c4cncn4C)cc32)c1 (configuration not stated) as the compound, how does the IC50 read?
A: 0.5 nM

Q: Which IC50 does the source give for Cn1cncc1C(O)(c1ccc(C#N)cc1)c1ccc2c(c1)n(-c1cccc(Cl)c1)c(=O)n2C (configuration not stated) here?
A: 1.4 nM

Q: Which IC50 does the source give for CS(=O)(=O)Cn1cncc1COCc1ccc(C#N)cc1-c1cccc(Cl)c1 here?
A: 96 nM

Q: Which IC50 does the source give for CCCCC(=O)N1CCN(C2c3ccc(Cl)cc3CCc3cc(Br)ccc32)CC1C(=O)NCc1ccc[n+]([O-])c1 (configuration not stated) here?
A: 1800 nM

Q: With N#Cc1ccc(Cn2cncc2Cn2ccc3cc(-c4cccc5ccccc45)c(C#N)cc32)cc1 as the compound, how does the IC50 read?
A: 0.15 nM

Source: ChEMBL document CHEMBL1140607, “Pharmacophore mapping of diverse classes of farnesyltransferase inhibitors” (Bioorg Med Chem Lett, 2007)
